Counter-ions that a name gives are not always drawn.
Key:
3′ UTR of the TNFα gene = assay: cell-based luciferase reporter assay, 5B cell line (luciferase gene with entire 3′ UTR of the TNFα gene); design: species or system mouse
[1] = test system: control cell line 3B (Raw 264.7, CMV-luciferase); assay: luciferase reporter assay, control 3B cell line (luciferase without 3′ UTR of TNFα); type: cell-based, mouse
Protocol: The candidate compounds were tested in a high-throughput, cell-based luciferase reporter assay. For this assay, a commercially available mouse macrophage Raw 264.7 cell line was stably transfected with a construct containing the CMV promoter operably linked to the luciferase gene which was modified using standard molecular biology techniques to contain the entire 3′ UTR of the TNFα gene. This 3′ UTR is important for the stability and translation of TNFα in cells. To control for effects of candidate compounds that are not specific for TNFα, a control cell line, called “3B,” was generated by stably transfecting the 264.7 cell line with a commercially available construct containing the luciferase gene (without the addition of the heterologous 3′ UTR of the TNFα gene) under the regulation of the CMV promoter.
Both the 3B and 5B cell lines were incubated in the presence of 10 μM of a candidate compound for one hour. Then, lipopolysaccharide (LPS) was added to stimulate TNFα secretion. Luciferase activity was measured by determining the luminescence intensity due to the reaction of lucifern, ATP, Mg^2+, and molecular O2 (see, for example, Ausubel et al., supra). The luciferase activity in a cell incubated with a candidate compound was reported as a percentage of the luciferase activity for the corresponding cell incubated with DMSO vehicle only. […]

TNFα = assay: ELISA of TNFα secreted into the media after LPS; type: cell-based; settings: for effect on amount of secreted TNFα (direct TNFα secretion assay), in words: after LPS stimulation
Summary of the method: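 Candidate compounds were tested directly for their ability to lower the amount of TNFα that cells secrete. A standard ELISA quantified TNFα released into the culture media. Each compound's effect is given as a percentage of the TNFα secreted by control cells that received only DMSO vehicle.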

Compound | effect on luciferase activity in the 5B cell line (luciferase assay), in words (3′ UTR of the TNFα gene) | effect on luciferase activity in the 3B control cell line, in words [1] | effect on amount of secreted TNFα (direct TNFα secretion assay), in words (TNFα) | Luciferase 5B (% of DMSO control) (3′ UTR of the TNFα gene; 10 μM compound, 1 h, then LPS, 5B cell line) | Luciferase 5B/3B (% of DMSO control 5B)/(% of DMSO control 3B) (3′ UTR of the TNFα gene; 10 μM compound, ratio of 5B to control 3B cell line) | TNFα Secretion (% of DMSO control) (TNFα; 10 μM compound, 1 h, then LPS)
C/C(=N\NC(=N)N)c1ccc(C(=O)N[C@@H](Cc2ccccc2)C(=O)NCCNC(=O)[C@H](Cc2ccccc2)NC(=O)c2ccc(/C(C)=N/NC(=N)N)cc2)cc1 [MES 10094, (E,E)-Bisguanylhydrazone of 1-[(S)-N-(4-Acetylbenzoyl)-2-amino-3-phenylpro-panoyl]-4-[(S)-N-(4-acetylbenzoyl)-2-amino-3-phenylpropanoyl]-1,4-diaza-butane bis hydrochloride] | strongly inhibited | only weakly inhibited | inhibited TNFα secretion |  |  | 
(Z,Z)-Bisguanylhydrazone of 1-[(S)-N-(4-benzoylbenzoyl)-2-amino-3-phenylpropanoyl]-4-[(2S)-N-(4-benzoylbenzoyl)-2-amino-4-methylpentanoyl]-1,4-piperazine bis trifluoroacetate [MES 10165] | inhibited TNFα secretion |  | inhibited TNFα secretion | 37 % of DMSO control | 63 (% of DMSO control 5B)/(% of DMSO control 3B) | 36 % of DMSO control
